Reference: publication PMC5583658, “6,7-dimethoxy-1,2,3,4-tetrahydro-isoquinoline-3-carboxylic acid attenuates heptatocellular carcinoma in rats with NMR-based metabolic perturbations” (Future Science OA, 2017)

Legend:
Type in all cases: in vivo, albino Wistar rats
[1] = test system: diethylnitrosamine-induced hepatocarcinogenic rats; assay: ALT and AST in plasma of DEN-induced HCC rats; conditions: DEN+5-FU 10 mg/kg intraperitoneally, 15 days, mean ± SD, n = 6
Description: (§1) All animals were randomly divided into five groups of six animals each. Drugs were suspended in 0.25% CMC, subjected to 28 days’ treatment orally and divided as follows: Group I: 0.25% CMC (2 ml/kg), Group II: DEN (8 mg/kg, intraperitoneally), Group III: DEN+5-fluorouracil (5-FU, 10 mg/kg, intraperitoneally), Group IV: DEN+M1 (50 mg/kg, orally) and Group V: DEN+M1 (100 mg/kg, orally). The procedure to induce HCC was adopted from a paper by Song et al. where it is shown that DEN produces HCC at 8 mg/kg intraperitoneal injection for 28 days to albino Wistar rats. After initial 1 week of adaptive inhabitation, all rats of group II–V were administered with DEN (8 mg/kg, intraperitoneally) for 28 days. After 28 days, 5-FU and M1 were given for 15 days as mentioned above for group III–V. At the end of the experimental period, animals were sacrificed by cervical decapitation and livers were dissected out immediately, rinsed in ice cold saline and stored at -20°C for further studies. The serum was collected, processed and stored for further analysis.
(§2) Liver function biomarkers like aspartate aminotransferase (AST), alanine aminotransferase (ALT) were also measured in serum using commercially available kit from Ebra Diagonesis Pvt Ltd, Germany. The oxidative parameters like superoxide dismutase (SOD), thiobarbituric acid reactive substances (TBARS), protein carbonyl (PC), SOD [14], tissue catalase (CAT) and glutathione (GSH) levels were estimated in liver tissue in the similar experiment. The total protein content of each sample was measured using the Bradford reagent and bovine serum albumin was used as a standard. Conjugated bilirubin and biliverdin in liver were measured as per the following procedure stated earlier in the literature with slight modifications.

[2] = test system: diethylnitrosamine-induced hepatocarcinogenic rats; assay: 1H-NMR-based serum metabolic profiling; conditions: rat serum; DEN+5-FU 10 mg/kg intraperitoneally
Description: as §1
All serum samples were thawed at room temperature, 250 μl of serum was taken and mixed with 250 μl of 0.9% saline sodium-phosphate buffer of strength 50 mM, pH 7.4 prepared in D2O. Then, the samples were centrifuged at 10,000 rpm for 5 min to remove any precipitates before acquiring the NMR data. A total 400 μl of the supernatant sample was used in 5 mm NMR tubes (Wilmad Glass, USA) for data acquisition with a co-axial insert containing the known concentration of TSP (sodium salt of 3-trimethylsilyl-(2,2,3,3-d4)-propionic acid) i.e. 0.1% was used as external standard reference to aid metabolite quantification for NMR experiment. Deuterium oxide (D2O; as a co-solvent and to provide a deuterium field/frequency lock) and sodium salt of trimethylsilylpropionic acid-d4 (TSP) used for NMR experiments, were purchased from Sigma-Aldrich (RI, USA).
All NMR spectra were recorded at 298 K on Bruker Biospin Avance-III 800 MHz NMR spectrometer operating at proton frequency of 800.21 MHz, equipped with CryoProbe and an actively shielded gradient unit with a maximum gradient-strength output of […]. The raw NMR data were processed in Topspin-2.1 (Bruker NMR data Processing Software). For each serum sample, one-dimensional ^1H-NMR and diffusion edited ^1H NMR spectra were recorded using the Carr–Purcell–Meiboom–Gill (CPMG) pulse sequence (cpmgpr1d, standard Bruker pulse program) with pre-saturation of the water peak through irradiating it continuously during the recycle delay (RD) of 5 sec, and the bipolar pulse pair longitudinal eddy current delay (BPP-LED) sequence, respectively. Each CPMG spectrum consisted of the accumulation of 128 scans and lasted for approximately 15 minutes. To remove broad signals from triglycerides, proteins, cholesterols and phospholipids, a total spin–spin relaxation time of 60 ms (n = 300 and 2τ=[…]) with a line broadening factor of 0.3 Hz was applied. For diffusion edited (DE)^1H NMR pulse sequence, the square gradients of 70% of the maximum gradient strength (56 G/cm) and 2 ms duration (followed by a delay of 200 μs to allow for the decay of eddy currents) were used. Diffusion time of 120 ms was used to attenuate the signals from low molecular weight compounds without affecting the lipid signals. All the spectra were processed using Topspin-2.1 (Bruker NMR data Processing Software) using standard Fourier Transformation (FT) procedure following manual phase and baseline-correction. Prior to FT, each FID was zero-filled to 4096 data points and a sine-bell apodisation function was applied. After FT, the chemical shifts were referenced internally to methyl peak of L-lactate (at δ=1.33 ppm). All recorded spectra were visually inspected for acceptability and subjected to multivariate statistical analysis to identify the altered metabolic pattern. […]

[3] = test system: diethylnitrosamine-induced hepatocarcinogenic rats; assay: Bilirubin and biliverdin in liver of DEN-induced HCC rats
Description: as §1, §2

[4] = test system: diethylnitrosamine-induced hepatocarcinogenic rats; assay: Oxidative stress parameters (SOD, CAT, GSH, PC, MDA) in liver of DEN-induced HCC rats; conditions: DEN+5-FU 10 mg/kg intraperitoneally, 15 days, mean ± SD, n = 6
Description: as §1, §2

[5] = test system: diethylnitrosamine-induced hepatocarcinogenic rats; assay: Histopathological studies of liver (hematoxylin and eosin); conditions: DEN+5-FU 10 mg/kg intraperitoneally; 40X
Description: as §1
Histopathological studies were also performed to find out the morphological changes of liver cells after M1 administration. Liver tissues from each group were assessed for their morphological changes using hematoxylin and eosin staining. The tissues were preserved in 10% formalin overnight. […]

[6] = DEN+5-FU 10 mg/kg intraperitoneally, 15 days, mean ± SD, n = 6

SMILES: O=c1[nH]cc(F)c(=O)[nH]1 [5-FU, 5-fluorouracil, reference compound]
- ALT [1]: 68.36 ± 5.32 U/L
- AST [1]: 61.58 ± 4.17 U/L
- Variation with respect to DEN: Acac (chemical shift 2.28) [2]: ↑
- Variation with respect to DEN: Ace (chemical shift 1.92) [2]: ↓
- Variation with respect to DEN: Acet (chemical shift 2.23) [2]: ↑
- Variation with respect to DEN: Ala (chemical shift 1.48) [2]: ↓
- Variation with respect to DEN: Betaine (chemical shift 3.265) [2]: ↓
- Variation with respect to DEN: Chol (chemical shift 3.22) [2]: ↓
- Variation with respect to DEN: Cr (chemical shift 3.03) [2]: ↑
- Variation with respect to DEN: Glucose (chemical shift 3.23–3.92, 4.63, 5.21) [2]: ↓
- Variation with respect to DEN: L1 (LDL) (chemical shift 0.83–0.87) [2]: ↓
- Variation with respect to DEN: L2 (VLDL) (chemical shift 0.87–0.90) [2]: ↑
- Variation with respect to DEN: L3 (LDL) (chemical shift 1.23–1.27) [2]: ↓
- Variation with respect to DEN: L4 (VLDL) (chemical shift 1.27–1.30) [2]: ↑
- Variation with respect to DEN: L6 (chemical shift 2.00) [2]: ↓
- Variation with respect to DEN: L8 (chemical shift 2.74) [2]: ↓
- Variation with respect to DEN: L9 (chemical shift 5.28) [2]: ↓
- Variation with respect to DEN: Lys (chemical shift 1.89) [2]: ↓
- Variation with respect to DEN: NAG (chemical shift 2.02) [2]: ↑
- Variation with respect to DEN: OAG (chemical shift 2.13) [2]: ↑
- Variation with respect to DEN: Pyr (chemical shift 2.37) [2]: ↓
- Variation with respect to DEN: Tyr (chemical shift 6.89) [2]: ↓
- bilirubin level ([3]; 5-FU-treated rats, text value (toxic ∼60 ng)): ~35 ng
- Bilirubin [3, 6]: 34.70 ± 2.12 ng/μg of protein
- Biliverdin [3, 6]: 18.39 ± 3.11 ng/μg of protein
- CAT [4]: 9.30 ± 0.35 nM of H2O2/min/μg of protein
- MDA [4]: 46.24 ± 0.26 nM/μg of protein
- PC [4]: 0.35 ± 0.07 μM/μg of protein
- Reduced GSH [4]: 7.30 ± 0.39 μM/μg of protein
- SOD [4]: 6.99 ± 0.43 U/μg of protein
- liver histopathology [5]: less ruptured and denatured cells (RC and DC) than toxic control
